The values below come from paper PMC13091788 (NPJ Aging, 2026).

On the set-up of data set [1]: method as in PMID 24593257. As to conditions: cited from earlier work.
Data set [2] relates to mitochondria isolated from hearts of aged mice. In words: Oxygen consumption analysis of isolated cardiac mitochondria. In kind it is in vivo, mouse. Conditions: AcA-BRB 0.5 mg/mL in drinking water. As for the experimental part:
Mouse heart tissue was homogenized in mitochondrial isolation buffer (210 mM mannitol, 70 mM sucrose, 5 mM HEPES-KOH, 1 mM EGTA, 0.5% fatty acid-free BSA, pH 7.2) using a glass-teflon homogenizer. Homogenates were centrifuged at 27,000 × g for 10 min at 4 °C, and the resulting pellets were resuspended in mitochondrial isolation buffer. Samples were centrifuged at 500 × g for 5 min at 4 °C, and the supernatants were collected and centrifuged at 10,000 × g for 5 min at 4 °C. The pellet was then resuspended in mitochondrial isolation buffer and centrifuged for 5 min at 10,000 × g at 4 °C. The resulting pellets were suspended in BSA-free mitochondrial isolation buffer, and mitochondrial protein concentration was determined using the Bio-Rad Protein Assay Dye Reagent (Bio-Rad Laboratories). Samples were then incubated with an equal volume of mitochondrial isolation buffer and subjected to oxygen consumption analysis.
Isolated mitochondria were diluted with mitochondrial assay solution (220 mM mannitol, 70 mM sucrose, 2 mM HEPES-KOH, 1 mM EGTA, 10 mM KH2PO4, 5 mM MgCl2, 0.2% fatty acid-free BSA, 2 mM malate, 10 mM pyruvate, pH 7.2) to 80 μg/mL. […] OCR was measured under basal conditions and after each injection using an XFe24 extracellular flux analyzer (Seahorse Bioscience).

A further data set relates to 86-week-old aged mice. In words: Survival analysis in aged mice on normal diet. In kind it is in vivo, mouse. As to conditions: 0.5 mg/mL in drinking water, from 86 weeks of age. The text has this: All experimental procedures were approved by the Ethics Review Committee for Animal Experimentation at Kumamoto University, Kumamoto, Japan (approval No. A 2024-083). Procedures followed the guidelines and recommendations outlined by the ILAR Guide for the Care and Use of Laboratory Animals (8th Edition, 2011). Prior to tissue collection, mice were euthanized under isoflurane anesthesia, followed by cervical dislocation to ensure rapid euthanasia, a procedure also employed during sacrifice for tissue harvesting. Euthanasia was performed when animals met the established criteria for humane endpoints, specifically a body weight loss exceeding 20% over a 3-day period or 25% over a 1-week period, in accordance with the Kumamoto University Ethics Review Committee for Animal Experimentation above. All animals fed a normal diet (CE-2, CLEA) were randomly assigned to two groups: tap water only and tap water supplemented with AcA-BRB (0.5 mg/mL). Mice were housed in an animal facility with lighting cycles automatically controlled (12 h light/12 h dark), maintained at a stable temperature of 22 ± 2 °C and a relative humidity of 40–80%. C57BL/6NJcl wild-type (WT) male mice aged 2, 20, and 24 months were used in this study.

Data set [3] has as its system C2C12 cells. In words: Mitochondrial membrane potential (JC-1). In kind it is cell-based, mouse. As to conditions: C2C12, Q-BRB or AcA-BRB 5 or 10 μM, 48 h. As for the experimental part:
Mitochondrial membrane potential was assessed using the JC-1 dye (JC-1, T3168, Thermo Fisher Scientific). Cells cultured in 96-well plates were washed twice with PBS and incubated with 1 μM JC-1 for 30 min at 37 °C in the dark. After incubation, cells were washed with PBS, and fluorescence intensities at 590 nm (red) and 530 nm (green) were measured using a microplate reader. The 590/530 nm fluorescence ratio was calculated and used as an index of mitochondrial membrane potential.

Data set [4] concerns C2C12 cells. Kind of data set: Mitochondrial ROS (4-HNE in isolated mitochondrial fractions). The data set is classed as cell-based, mouse. As to conditions: C2C12, Q-BRB or AcA-BRB 5 or 10 μM, 24 h. The text has this: Proteins in sample buffer were separated by SDS-PAGE and transferred to Immobilon-P PVDF membranes (IPVH00010, Millipore). Blots were probed with the indicated antibodies, and protein bands on the blot were visualized using Chemi-Lumi One L (07880-70, Nacalai Tesque) or Immobilon Western Chemiluminescent HRP Substrate (WBKLS0500, Millipore). Band images were captured using a LuminoGraph I imager (WSE-6100, ATTO). Relative band intensities were quantified using Fiji/ImageJ software. Unprocessed western blot images corresponding to the data presented in the main and supplementary figures are provided in Supplementary Figures 11–16. Mitochondria were isolated using differential centrifugation. Cells were washed twice with ice-cold PBS, harvested by scraping, and collected by centrifugation at 500 × g for 5 min at 4 °C. The resulting cell pellets were resuspended in ice-cold mitochondrial isolation buffer (250 mM sucrose, 10 mM HEPES-KOH pH 7.4, 1 mM EDTA, and protease inhibitor cocktail) and incubated on ice for 10 min. Cells were mechanically disrupted on ice using a 27 G needle. The homogenates were centrifuged at 800 × g for 10 min at 4 °C to remove nuclei and cellular debris. The supernatants were transferred to new tubes and centrifuged at 8000 × g for 10 min at 4 °C to obtain the mitochondrial fraction. […] Protein concentration was measured using the BCA Protein Assay Kit (Takara Bio).

For data set [5], the system named is C2C12 cells. Kind of data set: Mitochondrial morphology analysis (anti-Tom20, MiNA). In kind it is cell-based, mouse. As to conditions: C2C12, Q-BRB or AcA-BRB 10 μM, 48 h. On the procedure:
Cells were fixed with 4% paraformaldehyde in PBS for 15 min at 37 °C, washed three times with PBS, and permeabilized with 0.1% Triton X-100 in PBS for 10 min at room temperature (RT). After three additional washes with PBS, cells were blocked with 10% bovine serum albumin (BSA) in PBS for 10 min at RT. Cells were incubated with anti-Tom20 primary antibody (1:750 dilution, 11802-1-AP, Proteintech) in PBS containing 5% BSA for 1 h at RT, followed by three PBS washes. Hoechst 33342 (1:2000 dilution) and Alexa Fluor-conjugated secondary antibody (1:500 dilution, A11029, Invitrogen) in PBS containing 5% BSA were applied for 30 min at RT.
After three final PBS washes, cells were mounted with Fluorescent Mounting Medium (S3023, Dako), and imaged using an FV3000 confocal laser scanning microscope (Olympus). Images were acquired as Z-stacks with 0.2 μm intervals and reconstructed into maximum intensity projections using Fiji/ImageJ software.
Mitochondrial morphology was quantified using the MiNA plugin for Fiji (https://imagej.net/plugins/mina). Thirty cells per group were randomly selected for analysis. Average mitochondrial length and other morphological parameters were calculated according to the plugin’s standard analysis pipeline.

Molecules are shown by their SMILES.

As to `COc1ccc2cc3n(cc-2c1=O)CCc1cc2c(cc1-3)OCO2` [Q-BRB, quinoid-type berberrubine], the lipophilicity result in data set [1] was “very high”.

As to `COc1ccc2cc3[n+](cc2c1O)CCc1cc2c(cc1-3)OCO2` [berberrubine], in data set [2], the “ROS production (4-HNE in isolated cardiac mitochondria)” value is listed as “mild rise”. In data set [2] (vs controls), the “OCR of mitochondria isolated from hearts” value was “improved”. Besides, in the data set on 86-week-old aged mice, the survival rate entry is given as “did not significantly affect”. For the same compound, in the data set on C2C12 cells [3], the “mitochondrial membrane potential (JC-1 590/530 nm)” value was “remained unchanged”. For the same compound, the “mitochondrial ROS (4-HNE levels in isolated mitochondrial fractions)” value in the data set with C2C12 cells [4] was “modest increase”. In addition, the mitochondrial elongation entry in the data set on C2C12 cells [5] is “significantly enhanced”.
